# According to patent publication US20090088449A1, “4-ACYLAMINOPYRIDINE DERIVATIVE MEDIATED NEUROGENESIS” (MITSUBISHI TANABE PHARMA CORPORATION, priority 2006, published 2009):
# Key:
# [1] = system: Human Neural Stem Cells; experiment: MKC-231 in combination with an AMPA agonist, neuronal differentiation of human neural stem cells; assay type: cell-based; conditions: for EC50: Homo sapiens, Neural stem cell
# Description: FIG. 4 is a dose-response curve showing enhancement of the effects of the agent MKC-231 on neuronal differentiation by combination with an AMPA agonist (AMPA). Data is presented as the percentage of the neuronal positive control, with basal media values subtracted.
# FIG. 6 is the average does response curve of multiple experiments (N=6) showing enhancement of the effects of the agent MKC-231 on neuronal differentiation by combination with affixed concentration of AMPA agonist (0.32 μM AMPA). […] Data is presented as the percentage of the neuronal positive control, with basal media values subtracted.
# Experiments with various concentrations of MKC-231 alone or with 0.316 μM of an AMPA agonist (AMPA) were carried out generally as described in Example 1 for neuronal differentiation. […] The data also indicate that MKC-231 apparently exerts some of its neurogenic effect as an AMPA potentiator or sensitizer. Also see FIG. 6 relating to BCI-540 in combination with AMPA and neuronal differentiation.
# [2] = system: Human neural stem cells (hNSCs); experiment: Neuronal differentiation of human neural stem cells (TUJ-1 staining); assay type: cell-based
# Text: Human neural stem cells (hNSCs) were isolated and grown in monolayer culture, plated, treated with varying concentrations of MKC-231 (test compound), and stained with TUJ-1 antibody, as described in U.S. Provisional Application No. 60/697,905 (incorporated by reference). Mitogen-free test media with a positive control for neuronal differentiation was used along with basal media without growth factors as a negative control.
# The dose response curve of the neuronal positive control is included as a reference. The data is presented as a percent of neuronal positive control.
# [3] = system: hNSCs; experiment: Astrocyte differentiation of hNSCs (GFAP staining); assay type: cell-based, human
# Description: Experiments were carried out as described in Example 1, except the positive control for astrocyte differentiation contained mitogen-free test media with positive control for astrocyte differentiation, and cells were stained with GFAP antibody.
# [4] = system: Human Neural Stem Cells; experiment: Toxic/trophic effect on human neural stem cells (Hoechst 33342 cell count); assay type: cell-based; conditions: concentrations up to 31.6 μM
# Description: Experiments were carried out as described in Example 1, except that the cells were stained with a nuclear dye (Hoechst 33342).
# The data therein is shown as a percentage of the basal media cell count. Concentrations that are toxic fall below 80% of the basal cell count. Trophic compounds show dose dependent increases in cell count.
# [5] = system: Human Neural Stem Cells; experiment: MKC-231 in combination with an AMPA antagonist (NBQX), neuronal differentiation of human neural stem cells; assay type: cell-based
# Description: FIG. 7 is a dose-response curve showing inhibition of the effects of the agent MKC-231 on neuronal differentiation by combination with an AMPA antagonist (NBQX). Data is presented as the percentage of the neuronal positive control, with basal media values subtracted.
# Experiments with various concentrations of MKC-231 alone or with 1.0 μM of an AMPA antagonist (NBQX) were carried out generally as described in Example 1 for neuronal differentiation. […] The data also indicate that MKC-231 exerts some of its neurogenic effect as through the AMPA receptor activation.
# [6] = system: male F344 rats; experiment: Hippocampal neurogenesis in rat (BrdU); assay type: in vivo
# Description: BCI-540 was administered to male F344 rats by oral gavage once daily for 28 days (1.0 and 4.0 mg/kg/day, p.o.). BrdU was administered once daily for 5 days (days 9 to 14, 100 mg/kg/day, i.p.). Animals were sacrificed on day 28. Brains were removed and processed for evaluation of neurogenesis.
# The y-axis represents percent change compared to vehicle control. The x-axis indicates treatment with vehicle set to 100% (black bar) and BCI-540 dosed at 1.0 and 4.0 mg/kg/day (black hatched bars). The black line indicates 100% of vehicle control.
# [7] = system: male F344 rats; experiment: Novelty suppressed feeding in rat; assay type: in vivo; conditions: for change in latency to eat the food pellet: 21-day administration
# Description: BCI-540 was administered to male F344 rats by oral gavage once daily for 21 days (1.0 mg/kg/day, p.o.). Fluoxetine was administered by oral gavage once daily for 21 days (10 mg/kg/day, p.o.). BrdU was administered once daily for 5 days (days 9 to 14, 100 mg/kg/day, i.p.). Animals were tested after 21 days of drug administration.
# Shown in FIG. 9 is the change in latency to eat compared to vehicle control (±SEM). The y-axis represents percent change compared to vehicle control. The x-axis indicates treatment. Vehicle is set to 100%. The black line indicates 100% of vehicle control.
# [8] = system: male Sprague Dawley rats; experiment: Elevated plus maze (animal model of anxiety); assay type: in vivo, rat
# Description: BCI-540 was administered to male Sprague Dawley rats by oral gavage once daily for 21 days (1.0 mg/kg/day, p.o.). As a positive control, the anxiolytic diazepam (1.5 mg/kg, i.p.) was administered one time, 30 minutes prior to testing.
# The y-axis represents percent time on the open arm. The x-axis indicates treatment with vehicle (black bar), positive control diazepam (gray bar), and BCI-540 treated animals (black hatched bars) (n=15/group).
# [9] = biological target: acetylcholinesterase (AChE) (Homo sapiens, UniProt P22303); conditions: cited from earlier work
# Sequence of acetylcholinesterase (AChE) (P22303 32-614, species assumed): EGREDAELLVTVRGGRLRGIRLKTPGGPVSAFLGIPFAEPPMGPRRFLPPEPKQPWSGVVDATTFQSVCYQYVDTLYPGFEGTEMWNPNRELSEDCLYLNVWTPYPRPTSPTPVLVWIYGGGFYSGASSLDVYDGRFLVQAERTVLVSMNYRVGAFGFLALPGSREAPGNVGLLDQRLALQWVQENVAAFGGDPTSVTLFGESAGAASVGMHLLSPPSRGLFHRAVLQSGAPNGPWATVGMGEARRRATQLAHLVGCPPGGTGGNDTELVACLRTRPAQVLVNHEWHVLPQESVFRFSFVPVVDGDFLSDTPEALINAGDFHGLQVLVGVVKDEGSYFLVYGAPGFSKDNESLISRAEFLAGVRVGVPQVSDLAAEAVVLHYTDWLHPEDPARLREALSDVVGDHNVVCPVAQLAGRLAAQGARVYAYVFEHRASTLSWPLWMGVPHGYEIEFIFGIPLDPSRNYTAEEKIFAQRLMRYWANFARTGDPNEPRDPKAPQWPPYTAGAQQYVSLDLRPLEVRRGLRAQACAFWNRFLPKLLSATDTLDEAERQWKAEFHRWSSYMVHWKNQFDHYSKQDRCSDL
# [10] = cited from earlier work; for stability at room temperature and during storage: room temperature (about 25° C.), over time
# [11] = 1.0 mg/kg daily p.o. for 21 days
structure (smiles),measurement,setting,value
"Cc1o[nH]c(=O)c1CC(N)C(=O)O (stereo not drawn) [AMPA, reference compound]",effect of AMPA agonist on MKC-231 stimulated neuronal differentiation,[1]; 0.316 μM AMPA,enhances the stimulation of neuronal differentiation
same,neuronal differentiation by AMPA alone,[1]; 0.32 μM AMPA alone (FIG. 6),does not promote neuronal differentiation alone
"Cc1oc2nc3c(c(NC(=O)CN4CCCC4=O)c2c1C)CCCC3 [MKC-231, 2-(2-oxypyrrolidin-1-yl)-N-(2,3-dimethyl-5,6,7,8-tetrahydrofuro(2,3-b)quinolin-4-yl)acetoamide]",neuronal differentiation above background levels,[2]; FIG. 1,promoted neuronal differentiation above background levels
same,EC50,"[2]; Homo sapiens, Neural stem cell, MKC-231 alone, percent of neuronal positive control, basal media subtracted (FIG. 1)",5.1 µM
same,astrocyte differentiation above basal media values,[3]; FIG. 2,no significant increase
same,EC50 astrocyte differentiation,"[3]; percent of astrocyte positive control, basal media subtracted (FIG. 2)",undeterminable
same,toxicity (cell count below 80% of basal cell count),[4],no toxicity
same,EC50,"[1]; read-out: EC50 neuronal differentiation, MKC-231 in the presence of a fixed concentration AMPA",0.22 µM
same,EC50,"[1]; average of multiple experiments (N=6) (FIG. 6), read-out: EC50 neuronal differentiation, MKC-231 alone",3.7 µM
same,EC50,"[1]; with 0.316 μM AMPA agonist (AMPA) (FIG. 4), read-out: EC50 neuronal differentiation, MKC-231 in combination with AMPA",0.99 µM
same,EC50,"[5]; Homo sapiens, Neural stem cell, with 1.0 μM NBQX (FIG. 7)",> 31.6 µM
same,increase in new neurons within the granule cell layer of the dentate gyrus compared to vehicle control,[6]; 1.0 mg/kg daily p.o. for 28 days,22%
same,increase in new neurons within the granule cell layer of the dentate gyrus compared to vehicle control,[6]; 4.0 mg/kg daily p.o. for 28 days,20%
same,change in new neurons within the granule cell layer of the dentate gyrus,[6]; 1.0 and 4.0 mg/kg daily for 28 days,statistically significant increase
same,decrease in latency to eat compared to vehicle control,[7]; [11],35%
same,change in latency to eat the food pellet,[7],statistically significant decrease
same,increase in the time spent on the open arms,[8]; [11],20%
same,time spent on the open arms,"[8]; chronic administration, 1.0 mg/kg/day p.o., 21 days",significant increase
same,AChE inhibitory activity,[9],does not have such inhibitory activity
"NS(=O)(=O)c1cccc2c1c([N+](=O)[O-])cc1nc(O)c(O)nc12 [NBQX, reference compound]",effect of AMPA antagonist on MKC-231 stimulated neuronal differentiation,[5]; 1.0 μM NBQX,inhibits the stimulation of neuronal differentiation
"CN1C(=O)CN=C(c2ccccc2)c2cc(Cl)ccc21 [diazepam, reference compound]",increase in time spent on the open arms,"[8]; single administration, 1.5 mg/kg i.p., 30 minutes prior to testing",12%
"CNCCC(Oc1ccc(C(F)(F)F)cc1)c1ccccc1 (stereo not drawn) [fluoxetine, reference compound]",decrease in latency to eat compared to vehicle control,[7]; 10.0 mg/kg daily p.o. for 21 days,38%
same,change in latency to eat the food pellet,[7],statistically significant decrease
"Cc1oc2nc3c(c(NC(=O)CC4CNC(=O)C4)c2c1C)CCCC3 (stereo not drawn) [form A crystal, N-(2,3-dimethyl-5,6,7,8-tetrahydrofuro[2,3-b]quinolin-4-yl)-2-(2-oxopyrrolidin-4-yl)acetamide]",stability at room temperature and during storage,[10],better stability
same,stability in storage,[10],greater stability in storage than the form B crystal
"Cc1oc2nc3c(c(NC(=O)CC4CNC(=O)C4)c2c1C)CCCC3 (stereo not drawn) [form B crystal, N-(2,3-dimethyl-5,6,7,8-tetrahydrofuro[2,3-b]quinolin-4-yl)-2-(2-oxopyrrolidin-4-yl)acetamide]",stability at room temperature and during storage,[10],lower stability
same,stability in storage,[10],lower stability in storage than the form A crystal
